Experimental data reported in patent US20240408047A1, “HYPOXIA INDUCIBLE FACTOR-2(ALPHA) INHIBITORS FOR THE TREATMENT OF BLADDER CANCER” (NIKANG THERAPEUTICS, INC., priority 2021, published 2024).

Legend:
RT112 xenograft model = assay: Anti-tumor effect in mouse bladder cancer xenograft model RT112; assay type: in vivo, Balb/c Nude mouse; conditions: 20 mg/kg bid, 17-30 days
Experimental: (§1) Compound 1 was formulated with 0.5% methylcellulose. 4˜10×10^6 tumor cells in PBS and Corning® Matrigel (11 in volume) were inoculated subcutaneously at right flank for each Balb/c Nude mouse at 6-7 weeks of age for tumor development. Once tumors were 100-200 mm^3 in size, the tumor bearing mice were randomly grouped into 2 groups (n=8) and treatment started with vehicle bid and Compound 1 at 20 mg/kg bid, respectively, for 17-30 days. Tumor sizes were measured twice weekly in two dimensions using a caliper and the volumes were expressed in mm^3 using the formula V=0.5×a×b^2 where a and b were the long and short diameters of the tumor, respectively.

RT4 xenograft model = assay: Anti-tumor effect in mouse bladder cancer xenograft model RT4; assay type: in vivo, Balb/c Nude mouse
Experimental: as §1

T24 xenograft model = assay: Anti-tumor effect in mouse bladder cancer xenograft model T24; assay type: in vivo, Balb/c Nude mouse; conditions: 20 mg/kg bid, 17-30 days
Experimental: as §1

T24 cells = assay: Hypoxia-induced mRNA upregulation of VEGFA and GLUT1 in T24 cells (quantitative PCR); assay type: cell-based; conditions: 72 h, hypoxic (1% O2), Compound 1 at 1.0 μM
Experimental: T24 cells were treated with DMSO or 1.0 μM of Compound 1; control siRNA or siRNA specific for HIF-1α, HIF-2α, for 72 h under normoxic (20% O2) or hypoxic (1% O2) conditions. Total RNA was extracted using RNeasy mini kit (Qiagen, Catalog #74104) and QIAshredder (Qiagen, Catalog #79654). Then RNA was reverse-transcribed into cDNA using Applied Biosystems™ High-Capacity cDNA Reverse Transcription Kit (Applied Biosystems™ cat #4368814). The cDNA was used as templates to examine the mRNA expression of VEGFA and GLUT1 by quantitative polymerase chain reaction (PCR) assays (PowerUp SYBR Green Master Mix by Applied Biosystems™, cat #A25742), with GAPDH serving as control for normalization.

nectin-4 = conditions: patients who progressed following treatment with chemotherapy and immunotherapy; cited from earlier work

Compound	anti-tumor effect in RT112 xenograft model (RT112 xenograft model)	anti-tumor effect in RT4 xenograft model (RT4 xenograft model; 20 mg/kg bid, 17-30 days)	TGI (RT4 xenograft model; RT4 model, 20 mg/kg of Compound 1) [%]	anti-tumor effect in T24 xenograft model (T24 xenograft model)	GLUT1 mRNA level induced by hypoxia (T24 cells)	VEGFA mRNA level induced by hypoxia (T24 cells)	objective response rate (nectin-4) [%]
N#Cc1cc(F)cc(Oc2ccc3c4c2[C@@H](F)C[C@]4(O)C(F)(F)C3(F)F)c1 [Compound 1, 3-fluoro-5-(((1S,2aR)-1,3,3,4,4-pentafluoro-2a-hydroxy-2,2a,3,4-tetrahydro-1H-cyclopenta[cd]inden-7-yl)oxy)benzonitrile]	marginal anti-tumor effect	significant tumor growth inhibition	44	complete tumor regression	significantly suppressed	significantly suppressed	
Enfortumab vedotin							44
